Molecular target: T1, FPRL1 (Homo sapiens, UniProt P25090)
T1 construct: expressed in transfected cells
T1 sequence (P25090 1-351): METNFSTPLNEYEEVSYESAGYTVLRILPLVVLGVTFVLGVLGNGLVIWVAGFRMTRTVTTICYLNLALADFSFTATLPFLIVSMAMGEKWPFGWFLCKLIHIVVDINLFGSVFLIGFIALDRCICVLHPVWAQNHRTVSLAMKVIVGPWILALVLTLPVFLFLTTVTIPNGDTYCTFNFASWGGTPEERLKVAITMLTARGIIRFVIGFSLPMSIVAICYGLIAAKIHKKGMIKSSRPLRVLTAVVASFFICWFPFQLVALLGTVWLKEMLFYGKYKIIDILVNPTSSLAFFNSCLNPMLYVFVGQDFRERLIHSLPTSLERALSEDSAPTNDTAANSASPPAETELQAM
Assay: compound-induced calcium activity on FLIPR Tetra in CHO-Ga16 cells stably expressing FPRL1
Format: cell-based
Conditions: for FPRL1 (rel. eff.): relative efficacy; for EC50: tested 0.61 to 10,000 nM
Procedure: CHO-Ga16 cells stably expressing FPRL1 were cultured in (F12, 10% FBS, 1% PSA, 400 μg/ml geneticin and 50 μg/ml hygromycin) and HEK-Gqi5 cells stable expressing FPR1 were cultured in (DMEM high glucose, 10% FBS, 1% PSA, 400 μg/ml geneticin and 50 μg/ml hygromycin). In general, the day before the experiment, 18,000 cells/well were plated in a 384-well clear bottom poly-d-lysine coated plate. The following day the screening compound-induced calcium activity was assayed on the FLIPR^Tetra. The drug plates were prepared in 384-well microplates using the EP3 and the MultiPROBE robotic liquid handling systems. Compounds were tested at concentrations ranging from 0.61 to 10,000 nM. Results are expressed as EC50 (nM) and efficacy values.

For `O=C(CN1C(=O)C2C(C1=O)C1CCC2C12CC2)Nc1ccc(Br)cc1` (stereo not shown) [Compound 1, N-(4-Bromophenyl)-2-(1,3-dioxooctahydro-2H-spiro[2-aza-4,7-methanoisoindole-8,1′-cyclopropan]-2-yl)acetamide], the “FPRL1 (rel. eff.)” value was “(0.9)” and the EC50 was 118 nM.
In the case of `CSc1ccc(NC(=O)CN2C(=O)C3C(C2=O)C2CCC3C23CC3)cc1` (stereo not shown) [Compound 2, 2-(1,3-dioxooctahydro-2H-spiro[2-aza-4,7-methanoisoindole-8,1′-cyclopropan]-2-yl)-N-[4-(methylthio)phenyl]acetamide], the “FPRL1 (rel. eff.)” value is reported as “(1.0)” and the EC50 is reported as 336 nM.
For `O=C(CN1C(=O)C2C(C1=O)C1CCC2C12CC2)Nc1ccc(Cl)cc1` (stereo not shown) [Compound 3, N-(4-chlorophenyl)-2-(1,3-dioxooctahydro-2H-spiro[2-aza-4,7-methanoisoindole-8,1′-cyclopropan]-2-yl)acetamide], the “FPRL1 (rel. eff.)” value was “(1.0)” and the EC50 was 2050 nM.
For `CS(=O)(=O)c1ccc(NC(=O)CN2C(=O)C3C(C2=O)C2CCC3C23CC3)cc1` (stereo not shown) [Compound 4, 2-(1,3-dioxooctahydro-2H-spiro[2-aza-4,7-methanoisoindole-8,1′-cyclopropan]-2-yl)-N-[4-(methylsulfonyl)phenyl]acetamide], the “FPRL1 (rel. eff.)” value was “(0.72)” and the EC50 was 3460 nM.
For `O=C(CN1C(=O)C2C(C1=O)C1CCC2C12CC2)Nc1ccc(I)cc1` (stereo not shown) [Compound 5, 2-(1,3-dioxooctahydro-2H-spiro[2-aza-4,7-methanoisoindole-8,1′-cyclopropan]-2-yl)-N-(4-iodophenyl)acetamide], the “FPRL1 (rel. eff.)” value was “(0.86)” and the EC50 was 2650 nM.
With `CCc1ccc(NC(=O)CN2C(=O)C3C(C2=O)C2CCC3C23CC3)cc1` (stereo not shown) [Compound 6, 2-(1,3-dioxooctahydro-2H-spiro[2-aza-4,7-methanoisoindole-8,1′-cyclopropan]-2-yl)-N-(4-ethylphenyl)acetamide] the “FPRL1 (rel. eff.)” value was “(0.91)” and the EC50 was 1150 nM.
`CC(=O)c1ccc(NC(=O)CN2C(=O)C3C(C2=O)C2CCC3C23CC3)cc1` (stereo not shown) [Compound 7, N-(4-acetylphenyl)-2-(1,3-dioxooctahydro-2H-spiro[2-aza-4,7-methanoisoindole-8,1′-cyclopropan]-2-yl)acetamide] was tested, and the “FPRL1 (rel. eff.)” value was “(0.63)” and the EC50 was 7830 nM.
With `O=C(CN1C(=O)C2C(C1=O)C1CCC2C12CC2)Nc1ccc(Cl)nc1` (stereo not shown) [Compound 8, N-(6-chloropyridin-3-yl)-2-(1,3-dioxooctahydro-2H-spiro[2-aza-4,7-methanoisoindole-8,1′-cyclopropan]-2-yl)acetamide] the “FPRL1 (rel. eff.)” value was “(0.86)” and the EC50 was 2510 nM.
With `O=C(CN1C(=O)C2C(C1=O)C1CCC2C12CC2)Nc1ccc(F)cc1` (stereo not shown) [Compound 9, 2-(1,3-dioxooctahydro-2H-spiro[2-aza-4,7-methanoisoindole-8,1′-cyclopropan]-2-yl)-N-(4-fluorophenyl)acetamide] the “FPRL1 (rel. eff.)” value was “(0.9)” and the EC50 was 2320 nM.
`COc1ccc(NC(=O)CN2C(=O)C3C(C2=O)C2CCC3C23CC3)cc1` (stereo not shown) [Compound 10, 2-(1,3-dioxooctahydro-2H-spiro[2-aza-4,7-methanoisoindole-8,1′-cyclopropan]-2-yl)-N-(4-methoxyphenyl)acetamide] was tested, and the “FPRL1 (rel. eff.)” value was “(1.0)” and the EC50 was 267 nM.
For `CC(C(=O)Nc1ccc(Br)cc1)N1C(=O)C2C(C1=O)C1CCC2C12CC2` (stereo not shown) [Compound 11, N-(4-bromophenyl)-2-(1,3-dioxooctahydro-2H-spiro[2-aza-4,7-methanoisoindole-8,1′-cyclopropan]-2-yl)propanamide], the “FPRL1 (rel. eff.)” value was “(0.93)” and the EC50 was over 5000 nM.
In the case of `O=C(CN1C(=O)C2C(C1=O)C1C=CC2C12CC2)Nc1ccc(Br)cc1` (stereo not shown) [Compound 12, N-(4-bromophenyl)-2-(1,3-dioxo-1,3,3a,4,7,7a-hexahydro-2H-spiro[2-aza-4,7-methanoisoindole-8,1′-cyclopropan]-2-yl)acetamide], the “FPRL1 (rel. eff.)” value is reported as “(0.91)” and the EC50 is reported as 812 nM.
`O=C(CN1C(=O)C2CC=CCC2C1=O)Nc1ccc(Br)cc1` (stereo not shown) [N-(4-bromophenyl)-1,3,3a,4,7,7a-hexahydro-1,3-dioxo-2H-isoindole-2-acetamide, reference compound] was tested, and the “FPRL1 (rel. eff.)” value was “(0.98)” and the EC50 was 395 nM.
With `O=C(CN1C(=O)C2C3C=CC(C3)C2C1=O)Nc1ccc(Br)cc1` (stereo not shown) [N-(4-bromophenyl)-1,3,3a,4,7,7a-hexahydro-1,3-dioxo-4,7-methano-2H-isoindole-2-acetamide, reference compound] the “FPRL1 (rel. eff.)” value was “(0.90)” and the EC50 was 575 nM.
